Calls of active or inactive are those of the source. No cut-off for these calls is given here.
Legend:
[1] = Metabolic stability in human liver microsomes assessed as half life at 1 uM incubated upto 45 mins in presence of NADPH by LC-MS/MS analysis; format: ADME, Microsome
[2] = Permeability of compound at pH 7.4 at 10 uM incubated for 16 hrs by PAMPA-BBB assay based LC-MS/MS analysis
[3] = Apparent permeability across apical to basolateral side in dog MDCK-MDR1 cells at 5 uM incubated for 90 mins by LC-MS/MS analysis; format: ADME, cell-based, Canis lupus familiaris
[4] = AUC (0 to t) in Sprague-Dawley rat at 10 mg/kg,po measured upto 24 hrs by LC-MS/MS analysis; format: ADME, organism-based; conditions: in vivo
[5] = AUC (0 to infinity) in Sprague-Dawley rat at 2 mg/kg,iv measured upto 24 hrs by LC-MS/MS analysis; format: ADME, organism-based; conditions: in vivo
[6] = MRT (0 to infinity) in Sprague-Dawley rat at 10 mg/kg,po measured upto 24 hrs by LC-MS/MS analysis; format: ADME, organism-based; conditions: in vivo
[7] = Half life in Sprague-Dawley rat at 10 mg/kg,po measured upto 24 hrs by LC-MS/MS analysis; format: ADME, organism-based; conditions: in vivo
[8] = Cmax in Sprague-Dawley rat at 10 mg/kg,po measured upto 24 hrs by LC-MS/MS analysis; format: ADME, organism-based; conditions: in vivo
[9] = Drug concentration in Sprague-Dawley rat plasma at 10 mg/kg,po measured after 4 hrs by LC-MS/MS analysis; format: ADME, organism-based
[10] = Drug concentration in Sprague-Dawley rat plasma at 10 mg/kg,po measured after 6 hrs by LC-MS/MS analysis; format: ADME, organism-based
[11] = Drug concentration in Sprague-Dawley rat brain at 10 mg/kg,po measured after 4 hrs by LC-MS/MS analysis; format: ADME, organism-based; conditions: read-out: Ct
Cytochrome P450 2C9 = Cytochrome P450 2C9 (Homo sapiens, UniProt P11712); experiment: Inhibition of CYP2C9 in human liver microsomes using diclofenac as substrate preincubated for 10 mins followed by NADPH addition and measured after 40 mins by LC-MS/MS analysis; format: ADME, Microsome
[12] = target: Dual specificity tyrosine-phosphorylation-regulated kinase 2 (Homo sapiens, UniProt Q92630); experiment: Inhibition of DYRK2 (unknown origin) preincubated with enzyme for 10 mins followed by substrate and ATP addition measured after 60 mins by ADP-Glo reagent based assay
[13] = target: T1, Dual specificity protein kinase CLK1 (Homo sapiens, UniProt P49759); experiment: Inhibition of CLK1 (unknown origin) preincubated with enzyme for 10 mins followed by substrate and ATP addition measured after 60 mins by ADP-Glo reagent based assay
Target sequence in this assay (P49759 whole entry): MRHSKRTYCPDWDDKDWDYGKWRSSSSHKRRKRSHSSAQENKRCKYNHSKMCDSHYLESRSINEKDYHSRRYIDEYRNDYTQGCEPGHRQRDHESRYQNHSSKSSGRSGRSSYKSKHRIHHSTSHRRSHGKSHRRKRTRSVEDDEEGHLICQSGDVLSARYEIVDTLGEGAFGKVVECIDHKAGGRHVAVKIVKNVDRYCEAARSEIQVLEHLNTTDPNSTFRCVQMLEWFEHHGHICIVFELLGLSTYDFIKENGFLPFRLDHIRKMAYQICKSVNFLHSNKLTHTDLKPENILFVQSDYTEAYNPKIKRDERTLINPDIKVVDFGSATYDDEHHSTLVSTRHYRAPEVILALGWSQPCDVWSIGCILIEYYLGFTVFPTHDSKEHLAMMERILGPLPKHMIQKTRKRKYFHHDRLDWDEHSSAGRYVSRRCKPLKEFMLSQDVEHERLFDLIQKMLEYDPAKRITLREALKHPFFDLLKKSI

[14] = target: Dual specificity protein kinase CLK3 (Homo sapiens, UniProt P49761); experiment: Inhibition of CLK3 (unknown origin) preincubated with enzyme for 10 mins followed by substrate and ATP addition measured after 60 mins by ADP-Glo reagent based assay
[15] = target: Dual specificity tyrosine-phosphorylation-regulated kinase 3 (Homo sapiens) (UniProt O43781); experiment: Inhibition of DYRK3 (unknown origin) at 1 uM preincubated with enzyme for 10 mins followed by substrate and ATP addition measured after 60 mins by ADP-Glo reagent based assay relative to control; conditions: time 70.0 min
[16] = target: T1, Dual specificity protein kinase CLK1; experiment: Inhibition of CLK1 (unknown origin) at 1 uM preincubated with enzyme for 10 mins followed by substrate and ATP addition measured after 60 mins by ADP-Glo reagent based assay relative to control; conditions: time 70.0 min
Target sequence in this assay (P49759 whole entry, looked up): as the sequence (P49759 whole entry) above

HEK-293T = experiment: Cytotoxicity against human HEK293T cells expressing human Tau P301L mutant at 0.15625 to 10 uM incubated for 24 hrs by MTT assay; format: toxicity, cell-based; conditions: dose 0.15625-10 µM
[17] = Acute toxicity in C57BL/6 mouse assessed as change in heart weight at 500 mg/kg,po observed after 14 days; format: organism-based; conditions: in vivo, 336 h, time 14 day
[18] = Acute toxicity in C57BL/6 mouse assessed as change in spleen weight at 500 mg/kg,po observed after 14 days; format: organism-based; conditions: in vivo, 336 h, time 14 day
[19] = Acute toxicity in C57BL/6 mouse assessed as change in kidney weight at 500 mg/kg,po observed after 14 days; format: organism-based; conditions: in vivo, 336 h, time 14 day
[20] = Acute toxicity in C57BL/6 mouse assessed as histopathological change in heart at 500 mg/kg,po observed after 14 days by hematoxylin-eosin staining based analysis; format: organism-based; conditions: in vivo, 336 h, time 14 day
Mus musculus [21] = experiment: Antialzheimer activity in okadaic acid-induced cognitive impairment C57BL/6 mouse assessed as decrease in learning deficit at 10 to 30 mg/kg,po once daily for 2 weeks by Morris water maze test; format: functional, organism-based; conditions: dose 10-30 mg/kg
Mus musculus [22] = experiment: Antialzheimer activity in okadaic acid-induced cognitive impairment C57BL/6 mouse assessed as decrease in memory deficit at 10 to 30 mg/kg,po once daily for 2 weeks by Morris water maze test; format: functional, organism-based; conditions: dose 10-30 mg/kg
Mus musculus [23] = experiment: Antialzheimer activity in okadaic acid-induced cognitive impairment C57BL/6 mouse assessed as increase in number of platform crossing at 10 to 30 mg/kg,po measured after 7 days by Morris water maze test; format: functional, organism-based; conditions: dose 10-30 mg/kg, time 7.0 day
Mus musculus [24] = experiment: Antialzheimer activity in okadaic acid-induced cognitive impairment C57BL/6 mouse assessed as reduction in nerve damage in hippocampal DG region at 10 to 30 mg/kg,po once daily for 2 weeks by Nissl staining based microscopy; format: functional, organism-based; conditions: dose 10-30 mg/kg
Mus musculus [25] = experiment: Antialzheimer activity in okadaic acid-induced cognitive impairment C57BL/6 mouse assessed as downregulation of Tau phosphorylation at Thr212 residue in hippocampal CA1 region at 10 to 30 mg/kg,po once daily for 2 weeks by immunohistochemical staining analysis; format: functional, organism-based; conditions: dose 10-30 mg/kg
Mus musculus [26] = experiment: Antialzheimer activity in okadaic acid-induced cognitive impairment C57BL/6 mouse assessed as downregulation of Tau phosphorylation at Thr212 residue in hippocampal DG region at 10 to 30 mg/kg,po once daily for 2 weeks by immunohistochemical staining analysis; format: functional, organism-based; conditions: dose 10-30 mg/kg
[27] = Toxicity in okadaic acid-induced cognitive impairment C57BL/6 mouse assessed as change in body weight at 10 to 30 mg/kg,po once daily for 2 weeks; format: organism-based; conditions: in vivo, 336 h, dose 10-30 mg/kg
[28] = Toxicity in okadaic acid-induced cognitive impairment C57BL/6 mouse assessed as change in serum TBIL level at 10 to 30 mg/kg,po once daily for 2 weeks; format: organism-based; conditions: in vivo, 336 h, dose 10-30 mg/kg
[29] = Toxicity in okadaic acid-induced cognitive impairment C57BL/6 mouse assessed as change in serum GSH level at 10 to 30 mg/kg,po once daily for 2 weeks; format: organism-based; conditions: in vivo, 336 h, dose 10-30 mg/kg
[30] = Toxicity in okadaic acid-induced cognitive impairment C57BL/6 mouse assessed as change in serum BUN level at 10 to 30 mg/kg,po once daily for 2 weeks; format: organism-based; conditions: in vivo, 336 h, dose 10-30 mg/kg
[31] = Toxicity in okadaic acid-induced cognitive impairment C57BL/6 mouse assessed as change in serum CRE level at 10 to 30 mg/kg,po once daily for 2 weeks; format: organism-based; conditions: in vivo, 336 h, dose 10-30 mg/kg
CYP3A4 = CYP3A4 (Homo sapiens, UniProt P08684); experiment: Inhibition of CYP3A4 in human liver microsomes using testosterone as substrate at 10 uM preincubated for 10 mins followed by NADPH addition and measured after 40 mins by LC-MS/MS analysis relative to control; format: ADME, Microsome; conditions: probe testosterone, time 50 min
CYP3A4, sequence (P08684 whole entry): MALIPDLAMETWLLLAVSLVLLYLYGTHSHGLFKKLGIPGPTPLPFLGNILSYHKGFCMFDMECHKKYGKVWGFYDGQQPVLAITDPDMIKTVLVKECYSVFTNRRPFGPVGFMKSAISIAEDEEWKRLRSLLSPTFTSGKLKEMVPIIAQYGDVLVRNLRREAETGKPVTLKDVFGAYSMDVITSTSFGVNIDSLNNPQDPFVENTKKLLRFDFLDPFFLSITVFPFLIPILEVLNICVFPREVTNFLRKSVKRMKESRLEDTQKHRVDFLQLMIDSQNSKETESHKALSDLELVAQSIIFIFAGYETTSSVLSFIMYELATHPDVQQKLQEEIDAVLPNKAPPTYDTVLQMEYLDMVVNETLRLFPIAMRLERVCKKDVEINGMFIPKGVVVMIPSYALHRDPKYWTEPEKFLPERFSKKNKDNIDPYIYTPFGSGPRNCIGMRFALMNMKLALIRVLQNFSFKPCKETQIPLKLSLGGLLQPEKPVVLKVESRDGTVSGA

Dual specificity protein kinase CLK3, sequence (P49761 whole entry): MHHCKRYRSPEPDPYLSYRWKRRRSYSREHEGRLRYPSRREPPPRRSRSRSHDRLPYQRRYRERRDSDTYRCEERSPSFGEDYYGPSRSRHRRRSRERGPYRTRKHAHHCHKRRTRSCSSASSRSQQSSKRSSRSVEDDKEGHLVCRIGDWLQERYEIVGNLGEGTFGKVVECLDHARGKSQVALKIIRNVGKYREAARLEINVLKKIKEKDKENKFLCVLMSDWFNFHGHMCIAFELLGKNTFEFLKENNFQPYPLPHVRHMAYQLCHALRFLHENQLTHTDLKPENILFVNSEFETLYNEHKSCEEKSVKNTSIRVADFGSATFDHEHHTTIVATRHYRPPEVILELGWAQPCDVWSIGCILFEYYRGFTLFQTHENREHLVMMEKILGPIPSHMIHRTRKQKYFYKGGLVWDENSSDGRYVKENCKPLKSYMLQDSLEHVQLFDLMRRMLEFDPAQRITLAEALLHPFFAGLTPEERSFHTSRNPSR
Dual specificity tyrosine-phosphorylation-regulated kinase 3 (Homo sapiens), sequence (O43781 whole entry): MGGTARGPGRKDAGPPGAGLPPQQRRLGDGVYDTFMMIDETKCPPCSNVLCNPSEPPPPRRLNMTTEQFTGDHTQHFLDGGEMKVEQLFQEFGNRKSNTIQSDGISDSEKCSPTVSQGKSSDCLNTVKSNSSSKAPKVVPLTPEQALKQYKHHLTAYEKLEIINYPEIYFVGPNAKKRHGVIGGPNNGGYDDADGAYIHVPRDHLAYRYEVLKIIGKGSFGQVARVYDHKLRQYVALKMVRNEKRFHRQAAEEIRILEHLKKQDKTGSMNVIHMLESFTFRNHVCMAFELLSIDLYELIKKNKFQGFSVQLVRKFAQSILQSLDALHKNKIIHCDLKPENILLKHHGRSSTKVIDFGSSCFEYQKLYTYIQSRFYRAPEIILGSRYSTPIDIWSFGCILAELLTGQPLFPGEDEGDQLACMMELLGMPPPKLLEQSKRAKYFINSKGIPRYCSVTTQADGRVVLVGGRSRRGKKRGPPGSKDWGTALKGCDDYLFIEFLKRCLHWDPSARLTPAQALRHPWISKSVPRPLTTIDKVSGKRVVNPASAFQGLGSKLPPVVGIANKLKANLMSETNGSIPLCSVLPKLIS
Cytochrome P450 2C9, sequence (P11712 whole entry): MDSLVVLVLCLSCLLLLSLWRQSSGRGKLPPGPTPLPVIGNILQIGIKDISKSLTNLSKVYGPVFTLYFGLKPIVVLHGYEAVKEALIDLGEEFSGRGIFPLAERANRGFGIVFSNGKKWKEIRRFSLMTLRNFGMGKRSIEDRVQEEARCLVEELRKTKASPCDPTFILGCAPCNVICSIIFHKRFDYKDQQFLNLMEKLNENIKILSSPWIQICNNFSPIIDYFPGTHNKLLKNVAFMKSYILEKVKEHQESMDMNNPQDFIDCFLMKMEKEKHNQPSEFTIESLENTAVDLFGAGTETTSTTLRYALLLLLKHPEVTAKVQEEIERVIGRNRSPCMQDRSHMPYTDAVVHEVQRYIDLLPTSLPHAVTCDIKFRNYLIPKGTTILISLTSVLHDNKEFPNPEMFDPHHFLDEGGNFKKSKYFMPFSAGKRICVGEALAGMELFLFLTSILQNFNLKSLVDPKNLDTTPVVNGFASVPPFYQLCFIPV
Dual specificity tyrosine-phosphorylation-regulated kinase 2, sequence (Q92630 whole entry): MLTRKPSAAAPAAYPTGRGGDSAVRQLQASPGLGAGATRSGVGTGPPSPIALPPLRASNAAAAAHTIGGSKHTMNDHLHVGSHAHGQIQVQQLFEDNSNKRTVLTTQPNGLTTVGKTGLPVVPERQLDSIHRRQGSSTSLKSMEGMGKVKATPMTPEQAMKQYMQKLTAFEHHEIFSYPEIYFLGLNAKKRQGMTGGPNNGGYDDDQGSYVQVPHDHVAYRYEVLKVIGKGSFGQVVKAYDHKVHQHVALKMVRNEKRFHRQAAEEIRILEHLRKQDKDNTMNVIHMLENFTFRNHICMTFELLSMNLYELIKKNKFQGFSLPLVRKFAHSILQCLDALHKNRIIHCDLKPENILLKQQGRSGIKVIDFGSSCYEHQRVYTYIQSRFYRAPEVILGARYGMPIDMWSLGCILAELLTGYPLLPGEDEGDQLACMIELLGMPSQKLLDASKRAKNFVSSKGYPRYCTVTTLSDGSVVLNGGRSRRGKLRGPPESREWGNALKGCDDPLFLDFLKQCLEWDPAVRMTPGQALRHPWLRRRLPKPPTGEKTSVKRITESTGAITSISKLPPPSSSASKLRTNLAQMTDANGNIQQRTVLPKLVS

For `Cc1ccc2c(-c3ccc4ncnc(N[C@H](CO)c5ccccc5)c4c3)c[nH]c2n1`, the half-life at […], 1 µM [1] was 1.53 h, the Papp at 16 h, 10 µM [2] was 13.4 ×10⁻⁶ cm/s and the Papp A→B at […], 5 µM [3] was 2.67 ×10⁻⁶ cm/s. For the same compound, the AUC(0-t) at 24 h [4] was 2990 ng·h/mL, the AUC(0-inf) [5] was 1590 ng·h/mL and the MRT inf [6] was 5.98 h. The half-life [7] was 3.95 h, the Cmax [8] was 230 ng/mL and the concentration at 4 h [9] was 254 ng/mL. It also gave a concentration at 6 h [10] of 118 ng/mL, a concentration at 4 h [11] of 39.1 ng/g and an IC50 (Cytochrome P450 2C9) of 240 nM. It also gave an IC50 [12] of 14.2 nM, an IC50 [13] of 1.68 nM and an IC50 [14] of 38.9 nM. For the same compound, the inhibition [15] was 98.1%, the inhibition [16] was 99.5% and the Activity (HEK-293T) was “Non-Toxic”. The Activity [17] was “Non-Toxic”, the Activity [18] was “Non-Toxic” and the Activity [19] was “Non-Toxic”. The Activity [20] was “Non-Toxic”, the Activity (Mus musculus [21]) was “Active” and the Activity (Mus musculus [22]) was “Active”. For the same compound, the Activity (Mus musculus [23]) was “Active”, the Activity (Mus musculus [24]) was “Active” and the Activity (Mus musculus [25]) was “Active”. For the same compound, the Activity (Mus musculus [26]) was “Active”, the Activity [27] was “Non-Toxic” and the Activity [28] was “Non-Toxic”. The Activity [29] was “Non-Toxic”, the Activity [30] was “Non-Toxic” and the Activity [31] was “Non-Toxic”. It also gave an inhibition at 40 min, 10 µM (CYP3A4) of 63.3%.
